Results taken from US5344932A, “N-(pyrrolo(2,3-d)pyrimidin-3-ylacyl)-glutamic acid derivatives” (Trustees of Princeton University, priority 1991, dated 1994).

Columns and labels:
[1] = tested on: human T-cell derived lyphoblastic leukemia cells (CCRF-CEM); experiment: Reversal of cytotoxicity by addition of hypoxanthine/purines, AICA, thymidine or leucovorin; type: cell-based
Source text: (§1) As noted, the compounds of this invention have an effect on one or more enzymes which utilize folic acid, and in particular metabolic derivatives of folic acid, as a substrate. […] Cytotoxicity is not reversed by addition of purines such as hypoxanthine or by addition of aminoimidazolecarboxamide but is reversed by addition of thymidine, indicating specific inhibition in the tymidylate cycle and not in de novo purine synthesis. The compounds can be used, under the supervision of qualified professionals, to inhibit the growth of neoplasms including choriocarcinoma, leukemia, adenocarcinoma of the female breast, epidermid cancers of the head and neck, squamous or small-cell lung cancer, and various lymphosarcomas. The compounds can also be used to treat mycosis fungoides and psoriasis.
Cytotoxicity is also reversed by addition of leucovorin, indicating the cytotoxicity is due to antagonism of a folate-related mechanism.

[2] = tested on: L5178Y/TK^- tumor line; experiment: In vivo activity against L5178Y/TK^- tumor line in DBA/2 mice (female)
Description: In vivo activity can be seen from the following representative data for N-{4-[2-(4-hydroxy-6-aminopyrrolo[2,3-d]pyrimidin-3-yl)ethyl]benzoyl}-L-glutamic acid against the L5178Y/TK^- tumor line in DBA/2 mice (female), administration being ip in a total volume of 0.5 mL daily for eight days: […]

[3] = tested on: human T-cell derived lyphoblastic leukemia cells (CCRF-CEM); experiment: Inhibition of growth of CCRF-CEM cell cultures; type: cell-based
Source text: as §1
Representative inhibition values against CCRF-CEM 5 cell cultures for typical compounds are as follows: […]

[4] = dose 25.00, ip daily for eight days
[5] = dose 50.00, ip daily for eight days
[6] = dose 100.00, ip daily for eight days
[7] = dose 200.00, ip daily for eight days

Compound | Reversal of cytotoxicity by addition of aminoimidazolecarboxamide (AICA) ([1]; addition of aminoimidazolecarboxamide (AICA)) | Reversal of cytotoxicity by addition of purines such as hypoxanthine ([1]; addition of hypoxanthine) | Reversal of cytotoxicity by addition of thymidine ([1]; addition of thymidine) | Toxicity ([2]; dose 12.50, ip daily for eight days) | % Inhibition [2, 4] | Toxicity [2, 4] | Tumor Weight [2, 4] | % Inhibition [2, 5] | Toxicity [2, 5] | Tumor Weight [2, 5] | % Inhibition [2, 6] | Toxicity [2, 6] | Tumor Weight [2, 6] | % Inhibition [2, 7] | Toxicity [2, 7] | Tumor Weight [2, 7] | IC50 [3]
Nc1nc2[nH]cc(CCc3ccc(C(=O)N[C@@H](CCC(=O)O)C(=O)O)cc3)c2c(=O)[nH]1 | not reversed | not reversed | reversed | 0/7 | 100% | 0/7 | 0 ± 0 | 100% | 0/6 | 0 ± 0 | 100% | 0/7 | 0 ± 0 | 100% | 0/7 | 0 ± 0 | –
Nc1nc(O)c2c(CCc3ccc(C(=O)N[C@@H](CCC(=O)O)C(=O)O)o3)c[nH]c2n1 [N-{5-[2-(4-hydroxy-6-aminopyrrolo[2,3-d]pyrimidin-3-yl)ethyl]fur-2-ylcarbonyl}-L-glutamic acid] | – | – | – | – | – | – | – | – | – | – | – | – | – | – | – | – | > 20 µg/mL
